Test results as given in PubChem BioAssay AID1996.
Converted amounts (≈) assume the structure as drawn.

conditions: buffer; pH 7.4; 200.0 µM

SMILES | solubility kinetic
CCN1CCC(N2CCN(c3ccc(Cl)cc3)CC2)CC1 | 15.7 µg/mL (≈ 51 µM)
CCNCc1cc([N+](=O)[O-])ccc1OCC.Cl | > 39.1 µg/mL
O=C(O)C1CCCN1S(=O)(=O)c1ccc(Cl)cc1 (configuration not stated) | > 43.5 µg/mL
CN(C)CCNC(=O)C(=O)Nc1cc2c3c(c1)CCN3C(=O)CC2 | > 49.6 µg/mL
Cc1cccn2cc(CCNS(=O)(=O)c3cccs3)nc12 | 45.6 µg/mL (≈ 142 µM)
Nc1ccc(-c2cnc[nH]2)cc1[N+](=O)[O-] | > 30.6 µg/mL
CC(=O)Nc1cccc(C(=O)OC(C)C(=O)N2CCc3ccccc32)c1 (configuration not stated) | 1.3 µg/mL (≈ 3.69 µM)
CCOc1cc2c(cc1OC)C(NC(=O)c1ccco1)CC2=O (configuration not stated) | > 47.3 µg/mL
CCN1C(=O)CC(C(=O)OC)=C1C | 24.6 µg/mL (≈ 134 µM)
CC(OC(=O)c1ccc(S(=O)(=O)NCc2ccco2)cc1)C(=O)Nc1ccccc1 (configuration not stated) | 7.4 µg/mL (≈ 17.3 µM)
COCc1ccc(C(=O)Nc2cccc(S(=O)(=O)N(C)c3ccccc3)c2)cc1 | 15.7 µg/mL (≈ 38.2 µM)
O=C(NCc1ccc(F)cc1)C1CC(=O)N(C2CCCC2)C1 (configuration not stated) | > 45.7 µg/mL
O=C(O)CCN1C(=O)c2ccc(NC(=O)CCc3ccccc3)cc2C1=O | > 55 µg/mL
Cn1c(N)c(C(=O)COC(=O)c2ccc(F)cc2Cl)c(=O)n(C)c1=O | 4.5 µg/mL (≈ 12.2 µM)
CCC(=O)OCC(=O)Nc1cc([N+](=O)[O-])ccc1OC | 40.9 µg/mL (≈ 145 µM)
COc1ccc(S(=O)(=O)N2CCOCC2)cc1NC(=O)COC(=O)c1[nH]c(C)c(C(C)=O)c1C | 8.8 µg/mL (≈ 17.8 µM)
O=C(Oc1ccc(C(=S)N2CCOCC2)cc1)c1ccccc1F | 36.6 µg/mL (≈ 106 µM)
CC(=O)c1cc(CN2CCN(CCC(C)C)C(CCO)C2)cs1 (configuration not stated) | > 50.8 µg/mL
CSc1ccccc1C(=O)C1CCCN(C(=O)NC(C)C)C1 (configuration not stated) | 42.1 µg/mL (≈ 131 µM)
O=C(CN1CCCCC1)Nc1ccccc1Oc1ccccc1 | 5.6 µg/mL (≈ 18 µM)
Cc1cccc(NC(=O)CSc2cccc[n+]2[O-])c1C | 39.7 µg/mL (≈ 138 µM)
COC(=O)CC1=NN(c2nc3ccccc3s2)C(=O)/C1=C/N(C)C | > 51.7 µg/mL
Cc1ccc2oc(=O)n(Cc3ccccc3)c2c1 | 2.9 µg/mL (≈ 12.1 µM)
Cc1ccc(S(=O)(=O)N(C)C)cc1NC(=O)C(C)OC(=O)C1CCC1 (configuration not stated) | > 55.3 µg/mL
CN(Cc1cccc([N+](=O)[O-])c1)Cc1cccc2ccccc12 | < 0.3 µg/mL
COc1ccc(S(=O)(=O)N2CCN(C)CC2)cc1 | > 40.6 µg/mL

SMILES | solubility kinetic
CCCCNc1cc(C(=O)O)cc(S(N)(=O)=O)c1Oc1ccccc1 | > 54.7 µg/mL
Cc1ccc(C(=O)OCC(=O)NC(=O)c2cccn2C)cc1[N+](=O)[O-] | 1.3 µg/mL (≈ 3.76 µM)
CCOC(=O)C1=C(CC)Nc2ccccc2N=C1NC(=O)c1cc(S(=O)(=O)N2CCOCC2)ccc1C | 50.8 µg/mL (≈ 96.5 µM)
O=C(CCCC(=O)N1CCCC1)N1CCCC1 | 26.3 µg/mL (≈ 110 µM)
COCCOC(=O)c1[nH]c2c(c1C)C(=O)CC(c1ccc(OC)cc1)C2 (configuration not stated) | 1.6 µg/mL (≈ 4.48 µM)
CC(=O)c1ccc(NC(=S)NCCCn2ccnc2)cc1 | > 45.4 µg/mL
Cc1ccc(Cn2c(=O)oc3ccccc32)cc1 | 1 µg/mL (≈ 4.18 µM)
Cc1cc(NC(=O)CSc2nnc(-c3ccco3)n2C)no1 | > 47.9 µg/mL
CC(O/N=C(\N)c1ccccc1)C(=O)Nc1cccc(C(F)(F)F)c1 (configuration not stated) | > 52.7 µg/mL
C=CCSc1nc(N)cc(=O)[nH]1 | > 27.5 µg/mL
Cc1c(C=O)c2cc(OCc3ccccc3)ccc2n1C | < 0.6 µg/mL
CC(CCc1ccccc1)NC(=O)CCC(=O)N1CCC(C(N)=O)CC1 (configuration not stated) | 48.7 µg/mL (≈ 135 µM)
N#Cc1c(F)cccc1N1CCN(Cc2ccc3c(c2)OCO3)CC1 | 14.6 µg/mL (≈ 43 µM)
CC1(C)NC(=O)N(CCOc2ccc([N+](=O)[O-])cc2)C1=O | > 44 µg/mL
Cn1cc(S(=O)(=O)NCC2CCCO2)c(=O)n(C)c1=O (configuration not stated) | > 45.5 µg/mL
CCC(C)Nc1nc(N)c([N+](=O)[O-])c(N2CCCCCC2)n1 (configuration not stated) | 29.1 µg/mL (≈ 94.4 µM)
O=C(CNC(=O)c1ccc(Cl)cc1)OCN1C(=O)c2ccccc2C1=O | 7.7 µg/mL (≈ 20.7 µM)
CCc1noc(C)c1C(=O)Nc1nc(-c2ccc(F)cc2)c(C)s1 | 0.3 µg/mL (≈ 0.869 µM)
COc1ccccc1C1CCN(C(=O)c2ccc(C(C)(C)C)cc2)CC1 | 3.1 µg/mL (≈ 8.82 µM)
CCOc1ccccc1OCC(=O)Nc1nc2ccccc2[nH]1 | 4.1 µg/mL (≈ 13.2 µM)
COCCn1c(C)cc(C(=O)COC(=O)CNC(=O)c2ccco2)c1C | 45.2 µg/mL (≈ 125 µM)
OC(CN1CCN(Cc2ccccc2)CC1)c1ccccc1 (configuration not stated) | > 44.5 µg/mL
O=C(Nc1nccs1)c1ccc2c(c1)OCO2 | 3 µg/mL (≈ 12.1 µM)
CCOC(=O)c1cc(-c2cccc([N+](=O)[O-])c2)on1 | 2.1 µg/mL (≈ 8.01 µM)
CCCNC(=S)N1CCCC(c2nc3ccccc3[nH]2)C1 (configuration not stated) | 13.4 µg/mL (≈ 44.3 µM)

Further lines, results first:

solubility kinetic | SMILES
> 32.6 µg/mL | O=[N+]([O-])c1cccc(/C=N/n2cnnc2)c1
> 50.4 µg/mL | CC(C)NC(=NCc1ccc(Cl)cc1Cl)Nc1ccccc1
59.1 µg/mL (≈ 119 µM) | CS(=O)(=O)N1Cc2ccccc2CC1C(=O)OCC(=O)NCCc1ccc(S(N)(=O)=O)cc1 (configuration not stated)
32.9 µg/mL (≈ 93.5 µM) | CC(OC(=O)c1ccc(Cl)cc1O)C(=O)NCCC1=CCCCC1 (configuration not stated)
73.5 µg/mL (≈ 141 µM) | COc1cc(C(=O)OCC(=O)Nc2ccc(S(=O)(=O)NC3=NCCCCC3)cc2)cc(OC)c1OC
> 53.6 µg/mL | O=C(O)CC1(CC(=O)NCc2ccc(C(F)(F)F)cc2)CCCCC1
24 µg/mL | CCN(CC)CCCN=C(N)N.O=S(=O)(O)O
> 43.6 µg/mL | CCC(Oc1ccccc1C)C(=O)N1CCCN(C)CC1 (configuration not stated)
> 37.4 µg/mL | CC1(CO)COC2(OC1)C(=O)Nc1ccccc12 (configuration not stated)
40.1 µg/mL (≈ 148 µM) | Cc1nc2ccccc2n1CCOc1ccc(F)cc1
> 50.2 µg/mL | Cn1cnc(S(=O)(=O)Nc2ccccc2C(=O)NCC2CC2)c1
> 46.4 µg/mL | Cc1ccc2c(CC(=O)NNC(=O)c3ccncc3)coc2c1
2.8 µg/mL (≈ 7.34 µM) | COc1ccccc1NC(=O)Nc1sccc1-c1nc2ccccc2s1
< 0.2 µg/mL | Cc1cc(C)nc(Nc2nc(-c3ccccc3)cs2)n1
7.2 µg/mL (≈ 18.9 µM) | CC(=O)c1ccc(NC(=O)CN2c3cccc4cccc(c34)S2(=O)=O)cc1
0.4 µg/mL (≈ 1.22 µM) | CCOC(=O)c1cccc(NC(=S)NCc2ccc(C)cc2)c1
> 42.9 µg/mL | Cc1nc2cc(Cl)ccc2c(=O)n1Cc1ccncc1
2 µg/mL (≈ 7.11 µM) | O=C1NC(=Nc2ccccc2)S/C1=C\c1cccnc1
> 43.7 µg/mL | NS(=O)(=O)c1cccc(NC(=O)Nc2ccccc2)c1
30.7 µg/mL (≈ 126 µM) | N#Cc1c(F)cccc1NCCCn1ccnc1
45.3 µg/mL (≈ 138 µM) | CS(=O)(=O)N(CC(=O)Nc1ccc(F)cc1)C1CCCCC1
> 52.3 µg/mL | COc1ccc(CNC(=O)CN(C)S(=O)(=O)c2ccccc2)cc1

solubility kinetic | SMILES
> 47.9 µg/mL | Cc1cc(NC(=O)COC(=O)c2ccccc2NCCO)no1
< 0.6 µg/mL | CC(=O)c1c(C)n(-c2ccc(Cl)cc2)c2ccc(O)cc12
25.9 µg/mL (≈ 96.2 µM) | CN=C(C)/C(C(=O)OC)=C(/O)c1c(F)cccc1F
1.2 µg/mL (≈ 3.93 µM) | O=C(COc1ccccc1Cl)Nc1ccc2c(c1)OCO2
4.3 µg/mL (≈ 11.3 µM) | O=C(COC(=O)/C=C/c1ccc(C(F)(F)F)cc1)NCCC1=CCCCC1
26.4 µg/mL (≈ 126 µM) | COC(CNC(=O)c1cccnc1)OC
> 46.4 µg/mL | Cc1ccc(NC2CCCN(C(=O)c3cccnc3)C2)cc1C (configuration not stated)
> 42.5 µg/mL | O=C(COc1ccc(F)cc1F)N1CCCCCCC1
> 62.2 µg/mL | O=C(Nc1nnc(-c2ccccc2)o1)c1cccc(S(=O)(=O)N2CCOCC2)c1
< 0.4 µg/mL | O=C(COc1ccccc1Cl)Nc1ccc(N2CCCC2)cc1
6.5 µg/mL (≈ 22.7 µM) | CC(NC(=O)c1ccc(N(C)C)cc1)c1ccc(F)cc1 (configuration not stated)
> 44.8 µg/mL | O=C(O)c1cc(-c2ccccc2Cl)n(-c2ccccc2)n1
16.2 µg/mL (≈ 54.8 µM) | O=C(NCc1ccccc1)N1CCN(c2ccccc2)CC1
2.1 µg/mL (≈ 6.3 µM) | NS(=O)(=O)c1ccc(NC(=S)N2CCc3ccccc32)cc1
34.8 µg/mL (≈ 124 µM) | Cc1ccc(NC2=C(Cl)C(=O)OC2OC(C)C)cc1 (configuration not stated)
> 41 µg/mL | CSc1ccc(NC(=O)NCc2cccnc2)cc1
27.7 µg/mL (≈ 124 µM) | O=c1onc(-c2ccccc2)c2ccccc12
> 34.5 µg/mL | CC1(C)CC(=O)C=C(Nc2ccccc2N)C1
> 49.9 µg/mL | CCOC(=O)C1CCN(CCC(=O)Nc2cc(C)ccc2C)CC1
> 61 µg/mL | Cc1cc(NC(=O)CSCC(=O)OCc2nnc(-c3ccc(F)cc3)o2)no1
> 27.5 µg/mL | CC(=O)Nc1c(O)nc(C)[nH]c1=O
44.3 µg/mL (≈ 148 µM) | CC1(C)C(=O)N(c2ccccc2Cl)C(=O)c2ccccc21

solubility kinetic | SMILES
> 36.8 µg/mL | CCOC(=O)Cn1c(=O)cc(C)c2ccccc21
1 µg/mL (≈ 3.18 µM) | CCn1c(=O)c2cc(C(=O)NC(C)C)sc2c2ccccc21
8.1 µg/mL (≈ 25.6 µM) | O=C(Nc1ccc(F)cc1)Oc1ccccc1N1CCOCC1
> 41.5 µg/mL | CCCCOc1ccc(C(=O)N2CCNC(=O)C2)cc1
3.7 µg/mL (≈ 11.7 µM) | COc1ccccc1-c1cc(-c2ccc(O)cc2)nc(N)c1C#N
> 73.7 µg/mL | Cc1ccc([N+](=O)[O-])cc1S(=O)(=O)Nc1cccc(S(=O)(=O)Nc2ccccc2C(=O)O)c1
40.4 µg/mL (≈ 123 µM) | COc1cc2c(cc1OC)/C(=C/C(=O)c1ccccc1F)NCC2
37.3 µg/mL (≈ 120 µM) | CCN(CC)S(=O)(=O)c1ccc(-c2csc(C)n2)cc1
> 44.3 µg/mL | Cc1ccsc1C(=O)OCC(=O)N1CC(C)CC(C)C1 (configuration not stated)
> 45.8 µg/mL | O=C(OCC(=O)N1CCCC1=O)C1COc2ccccc2O1 (configuration not stated)
0.2 µg/mL (≈ 0.708 µM) | Cc1ccc(C)c(-c2csc(Nc3ncccn3)n2)c1
11.4 µg/mL (≈ 41.6 µM) | O=S(=O)(c1ccc(Cl)cc1)N1CCCCCC1
> 41.9 µg/mL | NC(=O)C1CCN(C(=S)NC2CC3C=CC2C3)CC1 (configuration not stated)
11.7 µg/mL (≈ 33.9 µM) | COc1ccc(-c2csc(NC(=O)CN3C(=O)CCC3=O)n2)cc1
0.6 µg/mL (≈ 1.88 µM) | COc1ccc(C/C(N)=N/OC(=O)c2ccc(Cl)cc2)cc1
3.4 µg/mL (≈ 10 µM) | Cc1cc(NC(=O)c2ccc(F)cc2)ccc1NC(=O)c1ccco1
3.2 µg/mL (≈ 12.4 µM) | Clc1ccc(-c2nc(-c3cnccn3)no2)cc1
43.3 µg/mL (≈ 136 µM) | CCN(CC(=O)Nc1ccc(C(=O)OC)cc1)C1CCCCC1
1.1 µg/mL (≈ 3.73 µM) | Cn1c(N)c(-c2ccccc2)c2ccc([N+](=O)[O-])cc2c1=O
48.3 µg/mL (≈ 140 µM) | CCOC(=O)C1CCN(C(=O)c2[nH]c3ccc(OC)cc3c2C)CC1
5.9 µg/mL (≈ 15.8 µM) | COc1cc(C(=O)NCc2cccs2)ccc1OCc1c(C)noc1C
3.4 µg/mL (≈ 9.62 µM) | CCCc1cc(=O)[nH]c(SCC(=O)Nc2cccc3ccccc23)n1
